Reference: patent US12653809B2, “Urea, amide, and substituted heteroaryl compounds for CBL-B inhibition” (Nurix Therapeutics, Inc., priority 2019, dated 2026)

Biological target: T1, Cbl-b (truncated variant, UniProt number Q13191) (Homo sapiens, UniProt Q13191)
T1 construct: made in house
Test: Cbl-b activity assay (TR-FRET, interaction of Cbl-b with UbcH5B-Ub)
Assay type: biochemical
Settings: Biological Example 1A; low or high conditions not stated; read-out: IC50 values in the Cbl-b inhibition assay of Biological Example 1A

T1 sequence (Q13191 36-427): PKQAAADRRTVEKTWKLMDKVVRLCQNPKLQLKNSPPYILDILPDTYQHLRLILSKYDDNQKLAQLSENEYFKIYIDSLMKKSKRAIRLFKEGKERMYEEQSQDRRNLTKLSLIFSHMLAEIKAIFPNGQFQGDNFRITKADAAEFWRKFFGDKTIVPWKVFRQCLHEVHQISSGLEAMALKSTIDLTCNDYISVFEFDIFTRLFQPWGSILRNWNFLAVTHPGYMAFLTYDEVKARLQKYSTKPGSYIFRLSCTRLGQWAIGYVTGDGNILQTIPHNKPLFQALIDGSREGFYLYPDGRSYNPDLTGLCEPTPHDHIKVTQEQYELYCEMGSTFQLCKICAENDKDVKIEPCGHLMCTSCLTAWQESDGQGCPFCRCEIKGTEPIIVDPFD

Structure (SMILES) | IC50 [µM]
CC(Sc1nncn1C)c1cccc(-n2cc(-c3ccccc3)nn2)c1 (centres unmarked) [Example 167, 1-(3-(1-((4-methyl-4H-1,2,4-triazol-3-yl)thio)ethyl)phenyl)-4-phenyl-1H-1,2,3-triazole] | 1 to 5

Same assay, conditions: high conditions: 100 mM NaCl, 60 nM Src kinase; 12 nM Cbl-b; read-out: Cbl-b activity IC50

Structure (SMILES) | IC50 [µM]
C[C@H](Sc1nncn1C)c1cccc(NC(=O)N2CCOCC2CO)c1 (stereo partly drawn) [Example 146, 3-(hydroxymethyl)-N-(3-((S)-1-((4-methyl-4H-1,2,4-triazol-3-yl)thio)ethyl)phenyl)morpholine-4-carboxamide] | ≥ 5
C[C@H](Sc1nncn1C)c1cccc(NC(=O)Nc2ccc(N3CCOCC3=O)cc2)c1 [Example 147, (S)-1-(3-(1-(4-methyl-4H-1,2,4-triazol-3-ylthio)ethyl)phenyl)-3-(4-(3-oxomorpholino)phenyl)urea] | ≥ 5
COc1cc(N2CCOCC2)ccc1NC(=O)Nc1cccc([C@H](C)Sc2nncn2C)c1 [Example 148, (S)-1-(2-methoxy-4-morpholinophenyl)-3-(3-(1-((4-methyl-4H-1,2,4-triazol-3-yl)thio)ethyl)phenyl)urea] | ≥ 5
C[C@H](Sc1nncn1C)c1cccc(NC(=O)N2CCN(c3cccnc3)CC2)c1 [Example 149, (S)—N-(3-(1-((4-methyl-4H-1,2,4-triazol-3-yl)thio)ethyl)phenyl)-4-(pyridin-3-yl)piperazine-1-carboxamide] | ≥ 5
C[C@H](Sc1nncn1C)c1cccc(NC(=O)Nc2ccc(CC(=O)N(C)C)cc2)c1 [Example 150, (S)—N,N-dimethyl-2-(4-(3-(3-(1-((4-methyl-4H-1,2,4-triazol-3-yl)thio)ethyl)phenyl)ureido)phenyl)acetamide] | ≥ 5
C[C@H](Sc1nncn1C)c1cccc(NC(=O)N2CCCC2)c1 [Example 151, N-[3-[(1S)-1-[(4-methyl-4H-1,2,4-triazol-3-yl)sulfanyl]ethyl]phenyl]pyrrolidine-1-carboxamide] | ≥ 5
CCn1cc(CN(C)C(=O)Nc2cccc([C@H](C)Sc3nncn3C)c2)cn1 [Example 152, (S)-1-((1-ethyl-1H-pyrazol-4-yl)methyl)-1-methyl-3-(3-(1-((4-methyl-4H-1,2,4-triazol-3-yl)thio)ethyl)phenyl)urea] | ≥ 5
C[C@H](Sc1nncn1C)c1cccc(NC(=O)N2CC(C(=O)N3CCC(O)C3)C2)c1 (stereo partly drawn) [Example 153, 3-(3-hydroxypyrrolidine-1-carbonyl)-N-(3-((S)-1-((4-methyl-4H-1,2,4-triazol-3-yl)thio)ethyl)phenyl)azetidine-1-carboxamide] | ≥ 5
C[C@H](Sc1nncn1C)c1cccc(NC(=O)N2CCOC(c3ncon3)C2)c1 (stereo partly drawn) [Example 154, N-(3-((S)-1-((4-methyl-4H-1,2,4-triazol-3-yl)thio)ethyl)phenyl)-2-(1,2,4-oxadiazol-3-yl)morpholine-4-carboxamide] | ≥ 5
C[C@H](Sc1nncn1C)c1cccc(NC(=O)N2CCN(C)CC2)c1 [Example 155, (S)-4-methyl-N-(3-(1-((4-methyl-4H-1,2,4-triazol-3-yl)thio)ethyl)phenyl)piperazine-1-carboxamide] | ≥ 5
C[C@H](Sc1nncn1C)c1cccc(NC(=O)N2CCN(C3CC3)C(=O)C2)c1 [Example 156, (S)-4-cyclopropyl-N-(3-(1-((4-methyl-4H-1,2,4-triazol-3-yl)thio)ethyl)phenyl)-3-oxopiperazine-1-carboxamide] | ≥ 5
C[C@H](Sc1nncn1C)c1cccc(NC(=O)N2CCC(c3ccccn3)C2)c1 (stereo partly drawn) [Example 157, N-(3-((S)-1-((4-methyl-4H-1,2,4-triazol-3-yl)thio)ethyl)phenyl)-3-(pyridin-2-yl)pyrrolidine-1-carboxamide] | ≥ 5
C[C@H](Sc1nncn1C)c1cccc(NC(=O)Nc2ccc(S(=O)(=O)N(C)C)cc2)c1 [Example 158, (S)—N,N-dimethyl-4-(3-(3-(1-((4-methyl-4H-1,2,4-triazol-3-yl)thio)ethyl)phenyl)ureido)benzenesulfonamide] | ≥ 5
C[C@H](Sc1nncn1C)c1cccc(NC(=O)NC2CCCN(C)C2)c1 (stereo partly drawn) [Example 159, 1-(3-((S)-1-((4-methyl-4H-1,2,4-triazol-3-yl)thio)ethyl)phenyl)-3-(1-methylpiperidin-3-yl)urea] | ≥ 5
CC(=O)N1CCC2(CCN(C(=O)Nc3cccc([C@H](C)Sc4nncn4C)c3)CC2)C1 [Example 160, (S)-2-acetyl-N-(3-(1-((4-methyl-4H-1,2,4-triazol-3-yl)thio)ethyl)phenyl)-2,8-diazaspiro[4.5]decane-8-carboxamide] | ≥ 5
C[C@H](Sc1nncn1C)c1cccc(NC(=O)NC2CCCCC2)c1 [Example 161, (S)-1-cyclohexyl-3-(3-(1-((4-methyl-4H-1,2,4-triazol-3-yl)thio)ethyl)phenyl)urea] | ≥ 5
CC(=O)N1CCN(C(=O)Nc2cccc([C@H](C)Sc3nncn3C)c2)CC1 [Example 162, (S)-4-acetyl-N-(3-(1-(4-methyl-4H-1,2,4-triazol-3-ylthio)ethyl)phenyl)piperazine-1-carboxamide] | ≥ 5
CNS(=O)(=O)c1ccc(NC(=O)Nc2cccc([C@H](C)Sc3nncn3C)c2)cc1 [Example 163, (S)—N-methyl-4-(3-(3-(1-((4-methyl-4H-1,2,4-triazol-3-yl)thio)ethyl)phenyl)ureido)benzenesulfonamide] | ≥ 5
C[C@H](Sc1nncn1C)c1cccc(NC(=O)N2CCC2)c1 [Example 164, (S)—N-(3-(1-(4-methyl-4H-1,2,4-triazol-3-ylthio)ethyl)phenyl)azetidine-1-carboxamide] | ≥ 5
C[C@H](Sc1nncn1C)c1cccc(NC(=O)N2CCS(=O)(=O)CC2)c1 [Example 165, (S)—N-(3-(1-((4-methyl-4H-1,2,4-triazol-3-yl)thio)ethyl)phenyl)thiomorpholine-4-carboxamide 1,1-dioxide] | ≥ 5
Cn1cnnc1[C@H]1C[C@H]1c1cccc(NC(=O)N2CCOc3cccnc32)c1 [Example 166, N-(3-((1R,2S)-2-(4-methyl-4H-1,2,4-triazol-3-yl)cyclopropyl)phenyl)-2,3-dihydro-4H-pyrido[3,2-b][1,4]oxazine-4-carboxamide] | ≥ 5
CC(Sc1nncn1C)c1cccc(-n2cc(-c3ccccc3)nn2)c1 (centres unmarked) [Example 167, 1-(3-(1-((4-methyl-4H-1,2,4-triazol-3-yl)thio)ethyl)phenyl)-4-phenyl-1H-1,2,3-triazole] | 1 to 5
